Patent publication US8349827B2, “Substituted dipyrido-pyrimido-diazepine and benzo-pyrido-pyrimido compounds” (ArQule, Inc., priority 2009, dated 2013)
Counter-ions that a name gives are not always drawn.

Assays:
DLD-1 = assay: MTS assay, DLD-1 cells; format: cell-based; conditions: Homo sapiens, 72 hours
Method in brief: (§1)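 First, seed 3000 cells per well in low-serum (1% FBS) DMEM and culture 18 h. Next, add compounds prepared at 300× in DMSO and diluted 1:40 in DMEM; incubate 72 h. Finally, add MTS/PMS for 4 h and measure absorbance at 492 nm.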

KATO III = assay: MTS assay, KATO III cells; format: cell-based; conditions: Homo sapiens, 72 hours
Method in brief: as §1

MDA-MB-231 = assay: MTS assay, MDA-MB-231 cells; format: cell-based; conditions: Homo sapiens, 72 hours
Method in brief: as §1

NCI-H1299 = assay: MTS assay, NCI-H1299 cells; format: cell-based; conditions: Homo sapiens, 72 hours
Method in brief: as §1

PACA-2 = assay: MTS assay, PACA-2 cells; format: cell-based; conditions: 72 hours
Method in brief: as §1

ABL T315I = ABL T315I (Homo sapiens, UniProt P00519, T315I); assay: ABL Kinase Activity Assay (Elisa), ABL T315I; format: biochemical; conditions: ATP 100 μM, read-out: Abl(T315I) Enzymetic assay (Elisa) % inhibition
Method in brief: (§2)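 Recombinant ABL or ABL T315I (0.089 nM final) preincubated 20 min with compound, then reacted 1 h at room temperature with 100 μM ATP and 128 nM biotinylated AblTide in Tris pH 7.0/MgCl2 buffer. Phosphopeptide captured on streptavidin and detected by anti-phosphotyrosine ELISA with alkaline phosphatase secondary and Attophos fluorescence.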

ABL = ABL (Homo sapiens, UniProt P00519); assay: ABL Kinase Activity Assay (Elisa), ABL; format: biochemical; conditions: ATP 100 μM, read-out: Abl Enzymetic assay (Elisa) % inhibition
Method in brief: as §2

PC-3 = assay: MTS assay, PC-3 cells; format: cell-based; conditions: Homo sapiens, 72 hours
Method in brief: as §1

CN(C)CCCCCNc1ncc2c(n1)-c1cccnc1Nc1cnccc1-2 (as salt: TFA) [Example 48, N′-9H-dipyrido[2,3-b:4′,3′-f]pyrimido[4,5-d]azepin-2-yl-N,N-dimethylpentane-1,5-diamine]
melting point: 133 to 136 °C

c1ccc(CNc2ncc3c(n2)-c2cccnc2Nc2cnccc2-3)nc1 (as salt: TFA) [Example 49, N-(pyridin-2-ylmethyl)-9H-dipyrido[2,3-b:4′,3′-f]pyrimido[4,5-d]azepin-2-amine]
melting point: 253 to 255 °C

CN(C)CCCNc1ncc2c(n1)-c1cccnc1Nc1cnccc1-2 (as salt: TFA) [Example 50, N′-9H-dipyrido[2,3-b:4′,3′-f]pyrimido[4,5-d]azepin-2-yl-N,N-dimethylpropane-1,3-diamine]
melting point: > 253 °C

CN(C)CCCCNc1ncc2c(n1)-c1cccnc1Nc1cnccc1-2 (as salt: TFA) [Example 51, N′-9H-dipyrido[2,3-b:4′,3′-f]pyrimido[4,5-d]azepin-2-yl-N,N-dimethylbutane-1,4-diamine]
melting point: 154 to 156 °C

c1cnc2c(c1)-c1nc(NC3CCNCC3)ncc1-c1ccncc1N2 (as salt: TFA) [Example 59, N-piperidin-4-yl-9H-dipyrido[2,3-b:4′,3′-f]pyrimido[4,5-d]azepin-2-amine]
melting point: 189 to 191 °C

c1cnc2c(c1)-c1nc(NCC3CCNCC3)ncc1-c1ccncc1N2 (as salt: TFA) [Example 60, N-(piperidin-4-ylmethyl)-9H-dipyrido[2,3-b:4′,3′-f]pyrimido[4,5-d]azepin-2-amine]
melting point: 151 to 153 °C

Clc1cccc(CNc2ncc3c(n2)-c2cccnc2Nc2cnccc2-3)c1 [Example 1, N-(3-chlorobenzyl)-9H-dipyrido[2,3-b:4′,3′-f]pyrimido[4,5-d]azepin-2-amine]
inhibition at 10 µM (DLD-1): 50 to 79%
inhibition at 10 µM (KATO III): 80 to 100%
inhibition at 10 µM (MDA-MB-231): < 50%
inhibition at 10 µM (NCI-H1299): 50 to 79%
inhibition at 10 µM (PACA-2): < 50%
inhibition at 10 µM (ABL T315I): 80 to 100%
inhibition at 10 µM (ABL): 80 to 100%
melting point: 195 to 196 °C

Fc1ccc(CNc2ncc3c(n2)-c2cccnc2Nc2cnccc2-3)c(F)c1 [Example 2, N-(2,4-difluorobenzyl)-9H-dipyrido[2,3-b:4′,3′-f]pyrimido[4,5-d]azepin-2-amine]
inhibition at 10 µM (DLD-1): < 50%
inhibition at 10 µM (KATO III): 50 to 79%
inhibition at 10 µM (MDA-MB-231): < 50%
inhibition at 10 µM (NCI-H1299): 50 to 79%
inhibition at 10 µM (PACA-2): < 50%
inhibition at 10 µM (ABL T315I): 80 to 100%
inhibition at 10 µM (ABL): 80 to 100%
melting point: 264 to 266 °C

Fc1cccc(CNc2ncc3c(n2)-c2cccnc2Nc2cnccc2-3)c1 [Example 39, N-(3-fluorobenzyl)-9H-dipyrido[2,3-b:4′,3′-f]pyrimido[4,5-d]azepin-2-amine]
inhibition at 10 µM (DLD-1): 80 to 100%
inhibition at 10 µM (KATO III): 80 to 100%
inhibition at 10 µM (MDA-MB-231): 80 to 100%
inhibition at 10 µM (NCI-H1299): 80 to 100%
inhibition at 10 µM (PACA-2): 80 to 100%
inhibition at 10 µM (PC-3): 80 to 100%
inhibition at 10 µM (ABL T315I): 80 to 100%
inhibition at 10 µM (ABL): 80 to 100%

Cc1cccc(CNc2ncc3c(n2)-c2cccnc2Nc2cnccc2-3)c1 [Example 40, N-(3-methylbenzyl)-9H-dipyrido[2,3-b:4′,3′-f]pyrimido[4,5-d]azepin-2-amine]
inhibition at 10 µM (DLD-1): 50 to 79%
inhibition at 10 µM (KATO III): 50 to 79%
inhibition at 10 µM (MDA-MB-231): 50 to 79%
inhibition at 10 µM (NCI-H1299): 50 to 79%
inhibition at 10 µM (PACA-2): 80 to 100%
inhibition at 10 µM (PC-3): 80 to 100%
inhibition at 10 µM (ABL T315I): 80 to 100%
inhibition at 10 µM (ABL): 80 to 100%

COc1ccc(CCNc2ncc3c(n2)-c2cccnc2Nc2cnccc2-3)cc1 [Example 42, N-[2-(4-methoxyphenyl)ethyl]-9H-dipyrido[2,3-b:4′,3′-f]pyrimido[4,5-d]azepin-2-amine]
inhibition at 10 µM (DLD-1): 50 to 79%
inhibition at 10 µM (KATO III): 80 to 100%
inhibition at 10 µM (MDA-MB-231): < 50%
inhibition at 10 µM (NCI-H1299): < 50%
inhibition at 10 µM (PACA-2): < 50%
inhibition at 10 µM (PC-3): < 50%
inhibition at 10 µM (ABL T315I): 80 to 100%
inhibition at 10 µM (ABL): 80 to 100%

CN(C)CCCCNc1ncc2c(n1)-c1cccnc1Nc1cnccc1-2 [Example 51, N′-9H-dipyrido[2,3-b:4′,3′-f]pyrimido[4,5-d]azepin-2-yl-N,N-dimethylbutane-1,4-diamine]
inhibition at 10 µM (DLD-1): < 50%
inhibition at 10 µM (KATO III): 80 to 100%
inhibition at 10 µM (MDA-MB-231): 80 to 100%
inhibition at 10 µM (NCI-H1299): < 50%
inhibition at 10 µM (PACA-2): < 50%
inhibition at 10 µM (PC-3): 80 to 100%
inhibition at 10 µM (ABL T315I): < 50%
inhibition at 10 µM (ABL): 50 to 79%

Cc1cccc2c(CCNc3ncc4c(n3)-c3cccnc3Nc3cnccc3-4)c[nH]c12 [Example 52, N-[2-(7-methyl-1H-indol-3-yl)ethyl]-9H-dipyrido[2,3-b:4′,3′-f]pyrimido[4,5-d]azepin-2-amine]
inhibition at 10 µM (DLD-1): 50 to 79%
inhibition at 10 µM (KATO III): 80 to 100%
inhibition at 10 µM (MDA-MB-231): < 50%
inhibition at 10 µM (NCI-H1299): 50 to 79%
inhibition at 10 µM (PACA-2): < 50%
inhibition at 10 µM (PC-3): < 50%
inhibition at 10 µM (ABL T315I): 80 to 100%
inhibition at 10 µM (ABL): 80 to 100%
melting point: 153 to 155 °C

Nc1ccc(-c2ncc3c(n2)-c2cccnc2Nc2cnccc2-3)cc1 [Example 53, 4-(9H-dipyrido[2,3-b:4′,3′-f]pyrimido[4,5-d]azepin-2-yl)aniline]
inhibition at 10 µM (DLD-1): < 50%
inhibition at 10 µM (KATO III): < 50%
inhibition at 10 µM (MDA-MB-231): < 50%
inhibition at 10 µM (NCI-H1299): < 50%
inhibition at 10 µM (PACA-2): < 50%
inhibition at 10 µM (PC-3): < 50%
melting point: > 300 °C

c1ccc(-c2ncc3c(n2)-c2cccnc2Nc2cnccc2-3)cc1 [Example 54, 2-phenyl-9H-dipyrido[2,3-b:4′,3′-f]pyrimido[4,5-d]azepine]
inhibition at 10 µM (DLD-1): < 50%
inhibition at 10 µM (KATO III): < 50%
inhibition at 10 µM (MDA-MB-231): < 50%
inhibition at 10 µM (NCI-H1299): < 50%
inhibition at 10 µM (PC-3): < 50%
melting point: > 300 °C

c1cnc2c(c1)-c1nc(NCc3ccnc4[nH]ccc34)ncc1-c1ccncc1N2 [Example 55, N-(1H-pyrrolo[2,3-b]pyridin-4-ylmethyl)-9H-dipyrido[2,3-b:4′,3′-f]pyrimido[4,5-d]azepin-2-amine]
inhibition at 10 µM (DLD-1): 80 to 100%
inhibition at 10 µM (KATO III): 80 to 100%
inhibition at 10 µM (MDA-MB-231): < 50%
inhibition at 10 µM (NCI-H1299): 50 to 79%
inhibition at 10 µM (PACA-2): 80 to 100%
inhibition at 10 µM (PC-3): 80 to 100%
melting point: 208 to 211 °C

OCCc1cccc(Nc2ncc3c(n2)-c2cccnc2Nc2cnccc2-3)c1 [Example 56, 2-[3-(9H-dipyrido[2,3-b:4′,3′-f]pyrimido[4,5-d]azepin-2-ylamino)phenyl]ethanol]
inhibition at 10 µM (DLD-1): 50 to 79%
inhibition at 10 µM (KATO III): 80 to 100%
inhibition at 10 µM (MDA-MB-231): < 50%
inhibition at 10 µM (NCI-H1299): 50 to 79%
inhibition at 10 µM (PACA-2): 80 to 100%
inhibition at 10 µM (PC-3): < 50%
melting point: 208 to 211 °C

c1cnc2c(c1)-c1nc(NCC3CCNCC3)ncc1-c1ccncc1N2 [Example 60, N-(piperidin-4-ylmethyl)-9H-dipyrido[2,3-b:4′,3′-f]pyrimido[4,5-d]azepin-2-amine]
inhibition at 10 µM (DLD-1): 50 to 79%
inhibition at 10 µM (KATO III): 80 to 100%
inhibition at 10 µM (MDA-MB-231): 80 to 100%
inhibition at 10 µM (NCI-H1299): 50 to 79%
inhibition at 10 µM (PACA-2): 80 to 100%
inhibition at 10 µM (PC-3): 80 to 100%
inhibition at 10 µM (ABL T315I): < 50%
inhibition at 10 µM (ABL): 50 to 79%

OCCc1ccc(Nc2ncc3c(n2)-c2cccnc2Nc2ccccc2-3)cc1 [Example 63, 2-[4-(9H-pyrido[2,3-b]pyrimido[4,5-d][1]benzazepin-2-ylamino)phenyl]ethanol]
inhibition at 10 µM (DLD-1): 50 to 79%
inhibition at 10 µM (KATO III): 50 to 79%
inhibition at 10 µM (MDA-MB-231): < 50%
inhibition at 10 µM (NCI-H1299): < 50%
inhibition at 10 µM (PACA-2): 80 to 100%
inhibition at 10 µM (PC-3): 50 to 79%
inhibition at 10 µM (ABL T315I): < 50%
inhibition at 10 µM (ABL): < 50%

Cc1cccc2c(CCNc3ncc4c(n3)-c3cccnc3Nc3ccccc3-4)c[nH]c12 [Example 65, N-[2-(7-methyl-1H-indol-3-yl)ethyl]-9H-pyrido[2,3-b]pyrimido[4,5-d][1]benzazepin-2-amine]
inhibition at 10 µM (DLD-1): 80 to 100%
inhibition at 10 µM (KATO III): 80 to 100%
inhibition at 10 µM (MDA-MB-231): 50 to 79%
inhibition at 10 µM (NCI-H1299): 80 to 100%
inhibition at 10 µM (PACA-2): 80 to 100%
inhibition at 10 µM (PC-3): 80 to 100%
melting point: 188 to 190 °C

c1ccc2c(c1)Nc1ncccc1-c1nc(NCc3ccnc4[nH]ccc34)ncc1-2 [Example 66, N-(1H-pyrrolo[2,3-b]pyridin-4-ylmethyl)-9H-pyrido[2,3-b]pyrimido[4,5-d][1]benzazepin-2-amine]
inhibition at 10 µM (DLD-1): 50 to 79%
inhibition at 10 µM (KATO III): 80 to 100%
inhibition at 10 µM (MDA-MB-231): 50 to 79%
inhibition at 10 µM (NCI-H1299): 50 to 79%
inhibition at 10 µM (PACA-2): 80 to 100%
inhibition at 10 µM (PC-3): 50 to 79%
melting point: 285 to 288 °C
